Results: patent publication EP2271341B1, “SPECIFIC INHIBITORS FOR VASCULAR ENDOTHELIAL GROWTH FACTOR RECEPTORS” (Nova Southeastern University, priority 2008, dated 2009)

Columns and labels:
[1] = system: Human umbilical vein endothelial cell; assay: In Vitro Angiogenesis Assay (morphogenesis / tube formation on Matrigel, ECMatrix kit); assay type: cell-based; set-up: key to Results: Individual cells, well separated (+++++); Cells begin to migrate and align themselves (++++); Cells begin to line but not sprouting (+++); Visible Sprouting (++); Closed polygons begins to form (+); conditions: for Results: score of the extent of cellular networks, HUVECs 10^4 cells/well, inhibitors 1mM and 10 mM, 8 hours incubation at 37 °C, higher score = greater inhibition of angiogenesis
Description: Human umbilical vein endothelial cell was purchased from Cambrex Co. (East Rutherford, New Jersey) and maintained in EGM (Endothelial Growth Medium) supplemented with 2% FBS, 0.1% EGF, 0.1% Hydrocortisone, 0.1% GA-1000 and 0.4% BBE.
The morphogenesis assay on Matrigel was performed according to the manufacturer's instructions (Chemicon International). The ECMatrix™ kit consists of laminin, collagen type IV, heparan sulfate, proteoglycans, entactin and nidogen. It also contains various growth factors (TGF-β, FGF) and proteolytic enzymes (plasminogen, tPA, MMPs) that are normally produced in EHS tumors. The incubation condition was optimized for maximal tube-formation as follows: 50µl of EC Matrix™ was suitably diluted in the ratio 9:1 with 10X diluent buffer and used for coating the 96-well plate. The coated plates were incubated at 37° C for 1 hr. to allow the Matrix solution to solidify. In the meantime the HUVECs that were cultured for 24 hours in EGM with 2% FBS was trypsinised and resuspended in the growth media and the cells were counted. After 1 hr. pre-incubation of the plate with Matrix solution, the HUVECs were plated at 10^4 cells/well in the absence or in the presence of different VEGFR inhibitors (1mM and 10 mM). After 8 hours incubation at 37 °C, the cell three-dimensional organization (cellular network structures) was examined under an inverted photomicroscope. Each treatment was performed in triplicate.
Activated endothelial cells form cellular networks (mesh like structures) resembling capillary tubes sprouting into the stromal space. The formation of these cellular networks is a dynamic process, which started migration and alignment of cells followed by the development of capillary tubes like structures, sprouting of new branches and finally the formation of the cellular networks. Although this in vitro angiogenesis kit is designed only as a qualitative assay, we have made an attempt to quantitate the degree of angiogenesis using a scoring method. The scoring was based on the extent of the cellular networks that were observed as follows: • Individual cells, well separated (+++++) • Cells begin to migrate and align themselves (++++) • Cells begin to line but not sprouting (+++) • Visible Sprouting (++) • Closed polygons begins to form (+).
According to our qualitative assessment, the higher the scoring the greater the efficiency of the compound for inhibiting endothelial cell mediated angiogenesis.

MCF-7 = assay: Cytotoxicity towards breast carcinoma cell line MCF-7; assay type: cell-based; conditions: MCF-7 breast carcinoma cell line
VEGFR = assay: Assay of VEGF Receptor Tyrosine Kinase Activity (VEGFR immunoprecipitated from cell lysate, non-radioactive PTK ELISA); assay type: biochemical; conditions: VEGFR immunoprecipitated from cell lysate with VEGFR specific antibody, read-out: IC50 for inhibiting VEGFR kinase
Source text: Protein Tyrosine Kinases (PTKs) perform a critical role in signal transduction pathways that control cell proliferation, differentiation, metabolism, and apoptosis. Phosphorylation of proteins by PTKs is essential for the regulation of these biological mechanisms and defects in these pathways may result in a number of human diseases, including cancer. The important aspect of these enzymes in cellular regulation is accentuated by the fact that for a large number of kinases a corresponding viral oncogene product has been identified. […] CHEMICON's non-radioactive Tyrosine Kinase Activity Assay provides a simple, convenient and specific method for quantification and comparative determination of a wide range of PTKs. […]
The non-radioactive Tyrosine Kinase Activity Assay Kit consists of a synthetic Biotinylated Peptide Substrate, a Biotinylated Phosphopeptide, purified Phosphotyrosine specific monoclonal antibody conjugated to horseradish peroxidase (HRP) and other components required to perform 96 ELISA-based assays. […] The quantity of phosphate incorporated into the tyrosine kinase substrate is determined utilizing the phosphopeptide standard curve. […] The assay reaction would be terminated by the addition of 100 µl of stop solution and finally, the absorbance was measured on a standard microplate reader at 450nm. […]

GI-101A = assay: Cytotoxicity towards breast carcinoma cell line GI-101A; assay type: cell-based; conditions: GI-101A breast carcinoma cell line

Row | Compound | Results [1] | cytotoxicity (MCF-7) | IC50 (VEGFR) [µM] | EC50 ([1]; Homo sapiens, Endothelial cell, estimated, read-out: EC50 value for anti-antigenic effect) [µM] | cytotoxicity (GI-101A)
1 | CCC(CNCCO)Nc1nc2c(c(=O)n(C)c(=O)n2C)n1Cc1ccccc1 (centres unmarked) [Example 7] | ++ |  |  |  | 
2 | CCCCCCCCCCCCCCCCCCOc1ccc(C(=O)CC(=O)Nc2ccc(Sc3cccc(C(=O)O)c3)c(C(=O)O)c2)cc1 [Example 5] | +++ |  |  |  | 
3 | CCCCCCCCCCCCCCCCOc1ccc(C(NNS(=O)(=O)c2cccc(C(=O)O)c2)N2CCCCC2)cc1 (centres unmarked) [Example 2] | ++++ |  |  |  | 
4 | COc1ccc(NCC(O)Cn2cnc3c2c(=O)n(C)c(=O)n3C)cc1 (centres unmarked) [Example 1] | +++++ | produced cytotoxicity | 0.4 | 0.25 | produced cytotoxicity
